Holding throughout (assay type): cell-based
In one assay the test system is MV-4-11 cells. Briefly: Anti proliferative activity in MV-4-11 cells by Cell Titer Glo (Promega) assay. The settings on record: Homo sapiens, MV4-11, 72 h, 3 days, CellTiter-Glo. Here is the method: Example-P2: Determination of Anti Proliferative Activity of Compounds in Cell Lines MV-4-11 by Cell Titer Glo® (Promega) Assay
MV-4-11 (CRL-9591™) cells were seeded in 96 well plate flat black clear bottom plates (Corning, Cat. No 3904) using complete DMEM Medium. Next day, selected compounds of the present invention were added to cells from 10 mM stocks made in DMSO (Sigma Cat no. D2650). Each concentration of compound was tested in triplicate with DMSO concentration at a final percentage not exceeding 0.3 in the cells. After the incubation of MV-4-11 cells with compound for 3 days; assay was terminated using 100 μl of CellTiter Glo® reagent (Promega, Cat. no G7572). CellTiter-Glo® Luminescent reagent determines the number of viable cells based on quantitation of ATP present which is an indicator of cell number and metabolic activity. Luminescence readings were taken in Victor-5 instrument. Percent inhibition of proliferation was calculated using formula, % inhibition=100−(luminescence value of test/luminescence value of DMSO control)*100. DMSO control (0%)=Cells in complete media with DMSO; blank=Media alone containing DMSO. EC50 was calculated using graph pad prism software.

The next assay relates to SK-MEL-5 cells. Briefly: Anti proliferative activity in SK-MEL-5 cells by Cell Titer Glo (Promega) assay. The settings on record: Homo sapiens, retreatment on Day 4, terminated on day 8, CellTiter-Glo. Here is the method:
Example-P1: Determination of Anti Proliferative Activity of Compounds in Cell Lines SK-MEL-5 by Cell Titer Glo® (Promega) Assay
Cells were seeded into 96-well plates and the plate was incubated in 37 degrees incubator overnight. The next day, compounds were diluted 3-fold to cover 9-point concentration range in DMSO. Intermediate plate dilution was prepared in media followed with compound treatment in cells. Retreatment of cells with compound dilutions was performed on Day 4 and assay was terminated on day 8 for SK-MEL-5 cells using CellTiter-Glo and the plate was kept on orbital shaker for 20 minutes at RT. Assay was terminated on day 6 for RERF-LC-A1 without a compound retreatment. Luminescence signal was recorded on VICTOR^3 instrument. Percent inhibition of proliferation was calculated at each concentration and plotted against the compound concentration. EC50 value was calculated using GraphPad® software.

Another assay concerns the target T1, SMARCA2 (Homo sapiens, UniProt P51531).
T1 construct: endogenous in cells; host or cells: MV-4-11 (CRL-9591)
Description: SMARCA2 degradation in MV-4-11 cells by Western blot. The settings on record: MV4-11, 16 h, at 100 nM, vs DMSO, read-out: Percent degradation SMARCA2. Here is the method:
(§1) Example-P3: Determination of SMARCA2 and SMARCA4 Degradation in MV-4-11 Cells by Western Blot
(§2) MV-4-11 (CRL-9591™) cells were plated in 6 well plates using complete Iscove's Modified Dulbecco's Medium. On the third day, compounds of present invention were added to cells from 10 mM stocks made in DMSO (Sigma Cat no. D2650). Each concentration of compound was tested with DMSO not exceeding final percentage of 0.1 in the cells. Cells were incubated with the compound for 16 hours followed by harvesting with 1×RIPA lysis buffer (Thermo Fischer, catalogue number #89900) containing protease inhibitor cocktail (Sigma catalogue number #P-8340). Equal amount of protein was loaded on SDS PAGE gel for electrophoresis. Western blot was carried out for detection of either SMARCA2 (Cell signalling technologies, catalogue number #11966) or SMARCA4 antibody (Cell signalling technologies, catalogue number #52251). Beta-Tubulin antibody (Cell signalling technologies, catalogue number #86298) was used as loading control. Percentage of SMARCA2 or SMARCA4 degradation was calculated using formula % Degradation=100−(normalized band intensity in treated sample/normalized band intensity in DMSO sample)*100. Here, “ND” refers to Not determined.
On the technique in general: A western blot detects proteins with antibodies after separation by electrophoresis.

The target in the next assay is T2, SMARCA4 (Homo sapiens, UniProt P51532).
T2 construct: endogenous in cells; host or cells: MV-4-11 (CRL-9591)
Description: SMARCA4 degradation in MV-4-11 cells by Western blot. The settings on record: MV4-11, at 100 nM, 16 hours, vs DMSO, read-out: Percent degradation SMARCA4. Here is the method:
as §1, §2

Where a name gives a salt, the structure may show the parent alone.

T1 sequence (P51531 whole entry): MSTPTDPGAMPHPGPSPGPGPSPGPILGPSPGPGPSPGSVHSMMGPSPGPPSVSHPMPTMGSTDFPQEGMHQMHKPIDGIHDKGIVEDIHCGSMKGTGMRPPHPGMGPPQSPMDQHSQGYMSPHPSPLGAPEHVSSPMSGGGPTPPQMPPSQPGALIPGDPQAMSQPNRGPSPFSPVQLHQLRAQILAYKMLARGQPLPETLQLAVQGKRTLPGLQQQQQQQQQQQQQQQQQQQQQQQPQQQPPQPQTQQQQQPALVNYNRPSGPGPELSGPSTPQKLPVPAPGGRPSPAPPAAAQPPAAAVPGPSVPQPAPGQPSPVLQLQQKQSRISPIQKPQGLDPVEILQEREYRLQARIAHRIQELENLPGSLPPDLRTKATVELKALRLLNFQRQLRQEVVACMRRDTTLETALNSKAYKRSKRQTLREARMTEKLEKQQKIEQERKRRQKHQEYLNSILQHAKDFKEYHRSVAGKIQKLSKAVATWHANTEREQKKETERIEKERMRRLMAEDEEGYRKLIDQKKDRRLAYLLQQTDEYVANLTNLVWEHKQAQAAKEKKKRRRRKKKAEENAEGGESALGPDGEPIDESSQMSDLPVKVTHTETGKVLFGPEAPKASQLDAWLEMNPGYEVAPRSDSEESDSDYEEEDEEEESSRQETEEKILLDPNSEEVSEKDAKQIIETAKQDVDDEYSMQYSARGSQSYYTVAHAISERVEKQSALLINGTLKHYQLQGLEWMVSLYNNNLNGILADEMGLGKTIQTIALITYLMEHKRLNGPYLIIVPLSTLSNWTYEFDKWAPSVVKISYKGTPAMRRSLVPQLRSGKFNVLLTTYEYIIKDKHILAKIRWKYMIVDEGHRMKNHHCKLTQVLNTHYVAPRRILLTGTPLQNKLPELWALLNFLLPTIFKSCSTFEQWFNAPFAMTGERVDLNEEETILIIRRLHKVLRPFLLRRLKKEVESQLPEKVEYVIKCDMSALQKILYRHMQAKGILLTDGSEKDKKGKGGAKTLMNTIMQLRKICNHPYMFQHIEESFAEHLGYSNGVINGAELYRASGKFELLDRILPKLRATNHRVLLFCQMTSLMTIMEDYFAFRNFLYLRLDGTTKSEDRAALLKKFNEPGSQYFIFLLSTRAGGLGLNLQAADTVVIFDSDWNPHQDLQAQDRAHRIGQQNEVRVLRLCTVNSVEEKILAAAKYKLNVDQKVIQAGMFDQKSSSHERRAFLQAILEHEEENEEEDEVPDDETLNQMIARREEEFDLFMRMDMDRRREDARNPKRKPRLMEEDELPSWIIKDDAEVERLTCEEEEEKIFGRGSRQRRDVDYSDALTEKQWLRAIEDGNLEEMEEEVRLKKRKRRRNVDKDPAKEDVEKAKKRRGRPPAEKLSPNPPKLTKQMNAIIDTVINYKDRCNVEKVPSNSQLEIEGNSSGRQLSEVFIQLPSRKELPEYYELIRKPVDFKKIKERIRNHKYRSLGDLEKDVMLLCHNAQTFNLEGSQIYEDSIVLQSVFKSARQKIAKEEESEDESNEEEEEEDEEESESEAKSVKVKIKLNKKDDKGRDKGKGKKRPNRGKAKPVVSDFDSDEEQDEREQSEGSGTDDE
T2 sequence (P51532 whole entry): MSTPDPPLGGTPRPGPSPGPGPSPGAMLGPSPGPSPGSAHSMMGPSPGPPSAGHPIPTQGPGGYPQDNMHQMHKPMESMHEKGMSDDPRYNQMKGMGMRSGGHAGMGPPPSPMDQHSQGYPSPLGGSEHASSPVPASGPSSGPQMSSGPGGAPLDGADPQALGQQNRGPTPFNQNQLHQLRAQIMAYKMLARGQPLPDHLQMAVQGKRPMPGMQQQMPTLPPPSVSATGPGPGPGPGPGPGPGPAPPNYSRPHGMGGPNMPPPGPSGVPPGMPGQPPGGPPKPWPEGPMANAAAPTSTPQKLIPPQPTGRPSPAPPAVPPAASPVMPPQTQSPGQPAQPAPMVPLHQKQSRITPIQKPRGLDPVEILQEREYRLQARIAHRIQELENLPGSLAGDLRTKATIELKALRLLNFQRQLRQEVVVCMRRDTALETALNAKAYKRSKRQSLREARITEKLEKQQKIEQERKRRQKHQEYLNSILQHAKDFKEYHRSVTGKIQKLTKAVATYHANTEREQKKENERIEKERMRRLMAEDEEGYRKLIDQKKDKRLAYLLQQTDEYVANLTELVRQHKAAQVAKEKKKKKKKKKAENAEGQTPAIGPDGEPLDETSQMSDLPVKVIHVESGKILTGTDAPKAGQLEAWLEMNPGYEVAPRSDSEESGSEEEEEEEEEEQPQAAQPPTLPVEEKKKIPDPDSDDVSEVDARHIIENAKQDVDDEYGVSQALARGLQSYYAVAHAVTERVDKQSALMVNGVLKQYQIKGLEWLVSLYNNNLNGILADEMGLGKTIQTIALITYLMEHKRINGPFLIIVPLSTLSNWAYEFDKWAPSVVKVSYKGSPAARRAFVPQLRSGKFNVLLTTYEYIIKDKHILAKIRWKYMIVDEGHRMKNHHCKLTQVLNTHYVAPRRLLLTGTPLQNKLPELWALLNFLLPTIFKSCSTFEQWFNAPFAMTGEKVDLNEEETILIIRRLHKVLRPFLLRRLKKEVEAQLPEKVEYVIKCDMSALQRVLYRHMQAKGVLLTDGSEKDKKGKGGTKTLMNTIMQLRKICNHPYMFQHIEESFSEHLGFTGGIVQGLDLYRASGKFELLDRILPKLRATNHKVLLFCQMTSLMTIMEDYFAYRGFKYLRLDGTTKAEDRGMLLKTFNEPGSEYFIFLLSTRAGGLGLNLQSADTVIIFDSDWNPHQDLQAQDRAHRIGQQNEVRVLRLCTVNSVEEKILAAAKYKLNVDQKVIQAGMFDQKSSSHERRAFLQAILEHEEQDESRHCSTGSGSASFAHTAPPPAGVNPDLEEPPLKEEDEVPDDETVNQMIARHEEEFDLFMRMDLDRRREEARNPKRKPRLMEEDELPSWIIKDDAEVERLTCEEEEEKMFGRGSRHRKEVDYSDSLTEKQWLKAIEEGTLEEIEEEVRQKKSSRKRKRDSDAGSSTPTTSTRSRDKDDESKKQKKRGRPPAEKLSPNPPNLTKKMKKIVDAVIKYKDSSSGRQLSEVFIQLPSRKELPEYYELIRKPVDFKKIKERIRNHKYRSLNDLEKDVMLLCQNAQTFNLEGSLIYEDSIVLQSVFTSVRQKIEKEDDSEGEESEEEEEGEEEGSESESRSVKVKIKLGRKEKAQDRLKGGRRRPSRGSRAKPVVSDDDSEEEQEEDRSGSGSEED

Take `Nc1cccc2c1c(=O)nc1n(C3CCCC3)c3cc(N4CCC(N5CCC(c6ccc7c(c6)CN(C6CCC(=O)NC6=O)C7=O)CC5)CC4)ccc3n21` (stereo not shown) [Compound 8, 3-(5-(1′-(4-amino-7-cyclopentyl-5-oxo-5,7-dihydrobenzo[4,5]imidazo[1,2-a]quinazolin-9-yl)-[1,4′-bipiperidin]-4-yl)-1-oxoisoindolin-2-yl)piperidine-2,6-dione-HCl salt]: the concentration giving a half-maximal response (EC50) in the assay on MV-4-11 cells and in the assay on SK-MEL-5 cells was < 10 nM in each case. Moreover, the values for the inhibition at 0.1 µM on SMARCA2 and at SMARCA4 were 92% and 99%, respectively.

As to `O=C1CCC(N2Cc3cc(C4CCN(C5CCN(c6ccc7c(c6)n(C6CCCC6)c6nc(=O)c8c(Cl)cccc8n76)CC5)CC4)ccc3C2=O)C(=O)N1` (stereo not shown) [Compound 9, 3-(5-(1′-(4-chloro-7-cyclopentyl-5-oxo-5,7-dihydrobenzo[4,5]imidazo[1,2-a]quinazolin-9-yl)-[1,4′-bipiperidin]-4-yl)-1-oxoisoindolin-2-yl)piperidine-2,6-dione], the 50% effective concentration (EC50) with MV-4-11 cells and in the assay on SK-MEL-5 cells was < 10 nM in each case. The inhibition at 0.1 µM at SMARCA2 was found to be 90%; at SMARCA4 it was 99%.

Consider `Cn1c2cc(N3CCC(N4CCC(c5ccc6c(c5)CN(C5CCC(=O)NC5=O)C6=O)CC4)CC3)ccc2n2c3cccc(Br)c3c(=O)nc12` (stereo not shown) [Compound 14, 3-(5-(1′-(4-bromo-7-methyl-5-oxo-5,7-dihydrobenzo[4,5]imidazo[1,2-a]quinazolin-9-yl)-[1,4′-bipiperidin]-4-yl)-1-oxoisoindolin-2-yl)piperidine-2,6-dione], for which the EC50 in the assay on MV-4-11 cells and with SK-MEL-5 cells was < 10 nM in each case. The inhibition at 0.1 µM on SMARCA2 was 100%; on SMARCA4 it was 94%.

On to `Cn1c2cc(N3CCC(N4CCC(c5ccc6c(c5)CN(C5CCC(=O)NC5=O)C6=O)CC4)CC3)ccc2n2c3cccc(N)c3c(=O)nc12` (stereo not shown) [Compound 15, 3-(5-(1′-(4-amino-7-methyl-5-oxo-5,7-dihydrobenzo[4,5]imidazo[1,2-a]quinazolin-9-yl)-[1,4′-bipiperidin]-4-yl)-1-oxoisoindolin-2-yl)piperidine-2,6-dione-HCl salt], for which the EC50 with MV-4-11 cells and with SK-MEL-5 cells was < 10 nM in each case. For the same compound, the inhibition at 0.1 µM at SMARCA2 came out at 96%; on SMARCA4, 95%.

Take `Cn1c2cc(N3CCC(N4CCC(c5ccc(NC6CCC(=O)NC6=O)cc5F)CC4)CC3)ccc2n2c3cccc(Br)c3c(=O)nc12` (stereo not shown) [Compound 16, 3-((4-(1′-(4-bromo-7-methyl-5-oxo-5,7-dihydrobenzo[4,5]imidazo[1,2-a]quinazolin-9-yl)-[1,4′-bipiperidin]-4-yl)-3-fluorophenyl)amino)piperidine-2,6-dione]: the EC50 in the assay with MV-4-11 cells and with SK-MEL-5 cells was < 10 nM each time. In addition, the values for the inhibition at 0.1 µM on SMARCA2 and on SMARCA4 were 99% and 100%, respectively.

Regarding `Cn1c2cc(N3CCC(N4CCC(c5ccc(C6CCC(=O)NC6=O)cc5)CC4)CC3)ccc2n2c3cccc(Br)c3c(=O)nc12` (stereo not shown) [Compound 17, 3-(4-(1′-(4-bromo-7-methyl-5-oxo-5,7-dihydrobenzo[4,5]imidazo[1,2-a]quinazolin-9-yl)-[1,4′-bipiperidin]-4-yl)phenyl)piperidine-2,6-dione], the EC50 with MV-4-11 cells and in the assay with SK-MEL-5 cells was < 10 nM in each case. For the same compound, the inhibition at 0.1 µM at SMARCA2 is 68%; at SMARCA4, 24%.

Take `Cn1c2cc(N3CCC(N4CCC(c5ccc(C6CCC(=O)NC6=O)cc5)CC4)CC3)ccc2n2c3cccc(Cl)c3c(=O)nc12` (stereo not shown) [Compound 18, 3-(4-(1′-(4-chloro-7-methyl-5-oxo-5,7-dihydrobenzo[4,5]imidazo[1,2-a]quinazolin-9-yl)-[1,4′-bipiperidin]-4-yl)phenyl)piperidine-2,6-dione]: the EC50 in the assay on MV-4-11 cells and in the assay with SK-MEL-5 cells was < 10 nM throughout. Moreover, the values for the inhibition at 0.1 µM on SMARCA2 and at SMARCA4 were 98% and 95%, respectively.

On to `Cn1c2cc(N3CCC(N4CCC(c5ccc(C6CCC(=O)NC6=O)cc5)CC4)CC3)ccc2n2c3cccc(N)c3c(=O)nc12` (stereo not shown) [Compound 20, 3-(4-(1′-(4-amino-7-methyl-5-oxo-5,7-dihydrobenzo[4,5]imidazo[1,2-a]quinazolin-9-yl)-[1,4′-bipiperidin]-4-yl)phenyl)piperidine-2,6-dione], for which the concentration for a half-maximal effect (EC50) (commonly the midpoint of the concentration-response curve) with MV-4-11 cells is > 100 nM; with SK-MEL-5 cells it was 10 to 100 nM. Also, the inhibition at 0.1 µM is 80% on SMARCA2 and 81% at SMARCA4.

Consider `CC(C)n1c2cc(N3CCC(N4CCC(c5ccc(C6CCC(=O)NC6=O)cc5)CC4)CC3)ccc2n2c3cccc(N)c3c(=O)nc12` (stereo not shown) [Compound 21, 3-(4-(1′-(4-amino-7-isopropyl-5-oxo-5,7-dihydrobenzo[4,5]imidazo[1,2-a]quinazolin-9-yl)-[1,4′-bipiperidin]-4-yl)phenyl)piperidine-2,6-dione], for which the half-maximal effective concentration (EC50) with MV-4-11 cells was > 100 nM; in the assay on SK-MEL-5 cells, 10 to 100 nM. The inhibition at 0.1 µM came out at 86% at SMARCA2 and 75% at SMARCA4.

Consider `O=C1CCC(c2ccc(C3CCN(C4CCN(c5ccc6c(c5)n(C5CCCC5)c5nc(=O)c7c(Cl)cccc7n65)CC4)CC3)cc2)C(=O)N1` (stereo not shown) [Compound 22, 3-(4-(1′-(4-chloro-7-cyclopentyl-5-oxo-5,7-dihydrobenzo[4,5]imidazo[1,2-a]quinazolin-9-yl)-[1,4′-bipiperidin]-4-yl)phenyl)piperidine-2,6-dione-HCl salt], for which the EC50 with MV-4-11 cells and with SK-MEL-5 cells was < 10 nM in each case. The inhibition at 0.1 µM on SMARCA2 amounted to 89%; on SMARCA4 it was 56%.

For `O=C1CCC(Nc2ccc(C3CCN(C4CCN(c5ccc6c(c5)n(C5CCCC5)c5nc(=O)c7c(Cl)cccc7n65)CC4)CC3)c(F)c2)C(=O)N1` (stereo not shown) [Compound 23, 3-((4-(1′-(4-chloro-7-cyclopentyl-5-oxo-5,7-dihydrobenzo[4,5]imidazo[1,2-a]quinazolin-9-yl)-[1,4′-bipiperidin]-4-yl)-3-fluorophenyl)amino)piperidine-2,6-dione-HCl salt], the EC50 with MV-4-11 cells and in the assay on SK-MEL-5 cells was < 10 nM each time. Further, the inhibition at 0.1 µM at SMARCA2 was found to be 99%; at SMARCA4 it was 98%.

On to `Nc1cccc2c1c(=O)nc1n(C3CCCC3)c3cc(N4CCC(N5CCC(c6ccc(C7CCC(=O)NC7=O)cc6)CC5)CC4)ccc3n21` (stereo not shown) [Compound 25, 3-(4-(1′-(4-amino-7-cyclopentyl-5-oxo-5,7-dihydrobenzo[4,5]imidazo[1,2-a]quinazolin-9-yl)-[1,4′-bipiperidin]-4-yl)phenyl)piperidine-2,6-dione-HCl salt], for which the results for the concentration giving a half-maximal response (EC50) with MV-4-11 cells and in the assay on SK-MEL-5 cells were 10 to 100 nM and < 10 nM, respectively. Also, the figures for the inhibition at 0.1 µM at SMARCA2 and at SMARCA4 were 67% and 33%, respectively.

For the compound `Nc1cccc2c1c(=O)nc1n(C3CCCC3)c3cc(N4CCC(N5CCN(c6ccc(C7CCC(=O)NC7=O)cc6)CC5)CC4)ccc3n21` (stereo not shown) [Compound 26, 3-(4-(4-(1-(4-amino-7-cyclopentyl-5-oxo-5,7-dihydrobenzo[4,5]imidazo[1,2-a]quinazolin-9-yl)piperidin-4-yl)piperazin-1-yl)phenyl)piperidine-2,6-dione-HCl salt], the EC50 in the assay with MV-4-11 cells is > 100 nM; with SK-MEL-5 cells, 10 to 100 nM. Further, the inhibition at 0.1 µM was determined as 68% at SMARCA2 and 33% on SMARCA4.
